pKi: −log10 of the molar value.

Chain of HPK1 (Q92918 whole entry, looked up): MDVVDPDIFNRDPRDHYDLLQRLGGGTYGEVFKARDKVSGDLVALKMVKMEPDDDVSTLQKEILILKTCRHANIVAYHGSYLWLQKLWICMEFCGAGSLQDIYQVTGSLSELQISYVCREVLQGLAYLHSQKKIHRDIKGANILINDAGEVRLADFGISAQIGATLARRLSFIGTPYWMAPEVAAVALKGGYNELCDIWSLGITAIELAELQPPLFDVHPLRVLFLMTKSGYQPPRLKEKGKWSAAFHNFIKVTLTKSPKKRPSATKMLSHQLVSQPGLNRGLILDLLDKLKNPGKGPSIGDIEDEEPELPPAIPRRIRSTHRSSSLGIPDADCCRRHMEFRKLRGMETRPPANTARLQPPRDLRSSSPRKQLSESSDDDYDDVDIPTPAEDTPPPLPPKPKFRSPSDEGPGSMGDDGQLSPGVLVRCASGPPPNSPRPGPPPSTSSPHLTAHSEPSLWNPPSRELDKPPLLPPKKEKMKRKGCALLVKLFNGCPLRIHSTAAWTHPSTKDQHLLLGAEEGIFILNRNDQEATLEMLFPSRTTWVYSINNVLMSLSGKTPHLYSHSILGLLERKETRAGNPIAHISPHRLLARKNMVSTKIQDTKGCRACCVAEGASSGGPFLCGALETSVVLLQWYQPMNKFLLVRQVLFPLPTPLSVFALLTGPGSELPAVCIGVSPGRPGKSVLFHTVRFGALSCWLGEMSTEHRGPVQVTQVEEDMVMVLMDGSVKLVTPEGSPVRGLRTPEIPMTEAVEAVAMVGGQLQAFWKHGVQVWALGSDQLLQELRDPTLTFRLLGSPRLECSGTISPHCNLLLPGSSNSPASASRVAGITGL

The assay addresses HPK1 (Homo sapiens, UniProt Q92918). The assay can be described thus: HPK1 Kinase Binding Assay. The settings on record: LanthaScreen tracer 222 binding, one hour incubation at 25° C. How it is done:
Example A. HPK1 Kinase Binding Assay
A stock solution of 1 mM test compound was prepared in DMSO. The compound plate was prepared by 3-fold and 11-point serial dilutions. 0.1 μL of the compound in DMSO was transferred from the compound plate to the white 384 well polystyrene plates. The assay buffer contained 50 mM HEPES, pH 7.5, 0.01% Tween-20, 5 mM MgCl2, 0.01% BSA, and 5 mM DTT. 5 μl of 4 nM active HPK1 (SignalChem M23-11G) prepared in the buffer was added to the plate. The enzyme concentration given was based on the given stock concentration reported by the vender. 5 μl of 18 nM tracer 222 (ThermoFisher PV6121) and 4 nM LanthaScreen Eu-Anti GST antibody (ThermoFisher PV5595) were added. After one hour incubation at 25° C., the plates were read on a PHERAstar FS plate reader (BMG Labtech). Ki values were determined.
On to `CNCc1cc(F)c(-c2ccc3[nH]nc(-c4ccc(N5CCN(C)CC5)cc4)c3n2)c(F)c1` [Example 61, 1-(3,5-Difluoro-4-(3-(4-(4-methylpiperazin-1-yl)phenyl)-1H-pyrazolo[4,3-b]pyridin-5-yl)phenyl)-N-methylmethanamine], for which the pKi (commonly the Ki on a negative log10 scale, so that one unit is a factor of ten) is at least 7.00. With `COc1ccc(F)c(F)c1-c1ccc2[nH]nc(-c3ccc(N4CCN(C)CC4)cc3)c2n1` [Example 10, 5-(2,3-Difluoro-6-methoxyphenyl)-3-(4-(4-methylpiperazin-1-yl)phenyl)-1H-pyrazolo[4,3-b]pyridine] the figure was at least 7.00; with `Cc1n[nH]cc1-c1ccc2[nH]nc(-c3ccc(N4CCN(C)CC4)cc3)c2n1` [Example 34, 5-(3-Methyl-1H-pyrazol-4-yl)-3-(4-(4-methylpiperazin-1-yl)phenyl)-1H-pyrazolo[4,3-b]pyridine], at least 7.00; with `CN1CCN(c2ccc(-c3n[nH]c4ccc(-c5cccc6c5CCC6NCc5ccccc5)nc34)cc2)CC1` (stereo not shown) [Example 50, N-Benzyl-4-(3-(4-(4-methylpiperazin-1-yl)phenyl)-1H-pyrazolo[4,3-b]pyridin-5-yl)-2,3-dihydro-1H-inden-1-amine], at least 7.00. Regarding `Cc1ccccc1-c1ccc2[nH]nc(-c3ccc(N4CCN(C)CC4)cc3)c2n1` [Example 3], the pKi is at least 7.00. With `Cc1cccc(F)c1-c1ccc2[nH]nc(-c3ccc(N4CCN(C)CC4)cc3)c2n1` [Example 7, 5-(2-Fluoro-6-methylphenyl)-3-(4-(4-methylpiperazin-1-yl)phenyl)-1H-pyrazolo[4,3-b]pyridine] the figure was at least 7.00. Next, `CN1CCN(c2ccc(-c3n[nH]c4ccc(-c5ccccc5F)nc34)cc2)CC1` [Example 4, 5-(2-Fluorophenyl)-3-(4-(4-methylpiperazin-1-yl)phenyl)-1H-pyrazolo[4,3-b]pyridine]: at least 7.00; `CNC(=O)c1cccc(-c2ccc3[nH]nc(-c4ccc(N5CCN(C)CC5)cc4)c3n2)c1F` [Example 41, 2-Fluoro-N-methyl-3-(3-(4-(4-methylpiperazin-1-yl)phenyl)-1H-pyrazolo[4,3-b]pyridin-5-yl)benzamide]: at least 7.00. As for `CN1CCN(c2ccc(-c3n[nH]c4ccc(-c5c(F)cccc5CO)nc34)cc2)CC1` [Example 11, (3-Fluoro-2-(3-(4-(4-methylpiperazin-1-yl)phenyl)-1H-pyrazolo[4,3-b]pyridin-5-yl)phenyl)methanol], the pKi is at least 7.00. Consider `CN1CCN(c2ccc(-c3n[nH]c4ccc(-c5cnc6c(c5)CC(=O)N6)nc34)cc2)CC1` [Example 27, 5-(3-(4-(4-Methylpiperazin-1-yl)phenyl)-1H-pyrazolo[4,3-b]pyridin-5-yl)-1H-pyrrolo[2,3-b]pyridin-2(3H)-one], for which the pKi is at least 7.00.

Regarding `Cc1cccc(F)c1-c1nc2c(-c3cnc(N4CCOCC4)nc3)n[nH]c2cc1C#N` [Example 63, 5-(2-Fluoro-6-methylphenyl)-3-(2-morpholinopyrimidin-5-yl)-1H-pyrazolo[4,3-b]pyridine-6-carbonitrile], the pKi is at least 7.00. `CN1CCN(c2ccc(-c3n[nH]c4ccc(-c5ccccc5C#N)nc34)cc2)CC1` [Example 19] had a pKi of at least 7.00.

Compound `CN1CCN(c2ccc(-c3n[nH]c4ccc(-c5cccc(NS(C)(=O)=O)c5F)nc34)cc2)CC1` [Example 13, N-(2-Fluoro-3-(3-(4-(4-methylpiperazin-1-yl)phenyl)-1H-pyrazolo[4,3-b]pyridin-5-yl)phenyl)methanesulfonamide] had a pKi of at least 7.00. `CN1CCN(c2ccc(-c3n[nH]c4ccc(-c5cccc(C(=O)NCc6ccccc6)c5F)nc34)cc2)CC1` [Example 42, N-Benzyl-2-fluoro-3-(3-(4-(4-methylpiperazin-1-yl)phenyl)-1H-pyrazolo[4,3-b]pyridin-5-yl)benzamide] showed a pKi of at least 7.00. Next, `CN1CCN(c2ccc(-c3n[nH]c4ccc(-c5cccnc5)nc34)cc2)CC1` [Example 24, 3-(4-(4-Methylpiperazin-1-yl)phenyl)-5-(pyridin-3-yl)-1H-pyrazolo[4,3-b]pyridine]: at least 7.00. Next, `CNC1CCc2c(-c3ccc4[nH]nc(-c5ccc(N6CCN(C)CC6)cc5)c4n3)cccc21` (stereo not shown) [Example 48, N-Methyl-4-(3-(4-(4-methylpiperazin-1-yl)phenyl)-1H-pyrazolo[4,3-b]pyridin-5-yl)-2,3-dihydro-1H-inden-1-amine]: at least 7.00. Compound `CNCc1cc(C)c(-c2nc3c(-c4ccc(C(C)(C)O)nc4)n[nH]c3cc2C#N)c(F)c1` [Example 71, 5-(2-Fluoro-6-methyl-4-((methylamino)methyl)phenyl)-3-(6-(2-hydroxypropan-2-yl)pyridin-3-yl)-1H-pyrazolo[4,3-b]pyridine-6-carbonitrile] showed a pKi of at least 7.00. `Cc1c(N)cccc1-c1ccc2[nH]nc(-c3ccc(N4CCN(C)CC4)cc3)c2n1` [Example 6, 2-Methyl-3-(3-(4-(4-methylpiperazin-1-yl)phenyl)-1H-pyrazolo[4,3-b]pyridin-5-yl)aniline] gave a pKi of at least 7.00. Consider `Cc1cccc(F)c1-c1nc2c(-c3cnn(C)c3)n[nH]c2cc1C#N` [Example 77], for which the negative-log Ki (pKi) was at least 7.00. Next, `CN1CCC(NC(=O)c2ccc(-c3n[nH]c4ccc(-c5ccccc5F)nc34)cc2)CC1` [Example 55, 4-(5-(2-Fluorophenyl)-1H-pyrazolo[4,3-b]pyridin-3-yl)-N-(1-methylpiperidin-4-yl)benzamide]: at least 7.00; `CN1CCN(c2ccc(-c3n[nH]c4ccc(-c5cnc6nccnc6c5)nc34)cc2)CC1` [Example 32, 7-(3-(4-(4-methylpiperazin-1-yl)phenyl)-1H-pyrazolo[4,3-b]pyridin-5-yl)pyrido[3,2-b]pyrazine]: at least 7.00; `CN1CCN(c2ccc(-c3n[nH]c4ccc(-c5cncnc5)nc34)cc2)CC1` [Example 26, 3-(4-(4-Methylpiperazin-1-yl)phenyl)-5-(pyrimidin-5-yl)-1H-pyrazolo[4,3-b]pyridine]: at least 7.00. For the compound `CN1CCN(c2ccc(-c3n[nH]c4ccc(-c5cncc(-c6ncco6)c5)nc34)cc2)CC1` [Example 29, 2-(5-(3-(4-(4-Methylpiperazin-1-yl)phenyl)-1H-pyrazolo[4,3-b]pyridin-5-yl)pyridin-3-yl)oxazole], the pKi is at least 7.00. With `COc1cccc(F)c1-c1ccc2[nH]nc(-c3ccc(N4CCN(C)CC4)cc3)c2n1` [Example 8, 5-(2-Fluoro-6-methoxyphenyl)-3-(4-(4-methylpiperazin-1-yl)phenyl)-1H-pyrazolo[4,3-b]pyridine] the figure was at least 7.00. `CN1CCN(c2ccc(-c3n[nH]c4ccc(-c5ccccc5C(F)(F)F)nc34)cc2)CC1` [Example 5, 3-(4-(4-Methylpiperazin-1-yl)phenyl)-5-(2-(trifluoromethyl)phenyl)-1H-pyrazolo[4,3-b]pyridine] showed a pKi of at least 7.00. With `CN1CCN(c2ccc(-c3n[nH]c4ccc(-c5cncc6oc(C(C)(C)C)nc56)nc34)cc2)CC1` [Example 33, 2-tert-Butyl-7-(3-(4-(4-methylpiperazin-1-yl)phenyl)-1H-pyrazolo[4,3-b]pyridin-5-yl)oxazolo[5,4-c]pyridine] the figure was at least 7.00; with `CN1CCN(c2ccc(-c3n[nH]c4ccc(-c5cccc(F)c5F)nc34)cc2)CC1` [Example 9, 5-(2,3-Difluorophenyl)-3-(4-(4-methylpiperazin-1-yl)phenyl)-1H-pyrazolo[4,3-b]pyridine], at least 7.00. `CCN1CCN(c2ccc(-c3n[nH]c4cc(C#N)c(-c5c(C)cccc5F)nc34)cc2)CC1` [Example 64]: the negative logarithm of the Ki (pKi) was at least 7.00. Next, `CN1CCN(c2ccc(-c3n[nH]c4cc(C#N)c(-c5c(F)ccc6c5CCNC6)nc34)cn2)CC1` [Example 76]: at least 7.00. With `CNCc1cc(C)c(-c2nc3c(-c4cnn(C)c4)n[nH]c3cc2C#N)c(F)c1` [Example 66, 5-(2-Fluoro-6-methyl-4-((methylamino)methyl)phenyl)-3-(1-methyl-1H-pyrazol-4-yl)-1H-pyrazolo[4,3-b]pyridine-6-carbonitrile] the figure was at least 7.00; with `CNCc1cc(C)c(-c2nc3c(-c4cnc(N5CCOCC5)nc4)n[nH]c3cc2C#N)c(F)c1` [Example 70, 5-(2-Fluoro-6-methyl-4-((methylamino)methyl)phenyl)-3-(2-morpholinopyrimidin-5-yl)-1H-pyrazolo[4,3-b]pyridine-6-carbonitrile], at least 7.00. In the case of `Cn1cc(-c2n[nH]c3cc(C#N)c(-c4c(F)ccc5c4CCNC5)nc23)cn1` [Example 74], the pKi is at least 7.00. The compound `CCN1CCN(c2ccc(-c3n[nH]c4cc(C#N)c(-c5c(F)ccc6c5CCNC6)nc34)cc2)CC1` [Example 75] gave a negative-log Ki (pKi) of at least 7.00.

`Cc1cccc(F)c1-c1nc2c(-c3ccc(N4CCN(C)CC4)nc3)n[nH]c2cc1C#N` [Example 62] had a pKi of at least 7.00.

Compound `CN1CCN(c2ccc(-c3n[nH]c4ccc(-c5cnn6ccccc56)nc34)cc2)CC1` [Example 35, 3-(4-(4-Methylpiperazin-1-yl)phenyl)-5-(pyrazolo[1,5-a]pyridin-3-yl)-1H-pyrazolo[4,3-b]pyridine] gave a pKi of at least 7.00.

For `CN1CCN(c2ccc(-c3n[nH]c4ccc(-c5cccc6[nH]ncc56)nc34)cc2)CC1` [Example 23, 5-(1H-Indazol-4-yl)-3-(4-(4-methylpiperazin-1-yl)phenyl)-1H-pyrazolo[4,3-b]pyridine], the pKi was at least 7.00. With `CN1CCN(c2ccc(-c3n[nH]c4ccc(-c5cnc6c(c5)ncn6C)nc34)cc2)CC1` [Example 31, 5-(3-Methyl-3H-imidazo[4,5-b]pyridin-6-yl)-3-(4-(4-methylpiperazin-1-yl)phenyl)-1H-pyrazolo[4,3-b]pyridine] the figure was at least 7.00.

The record behind these values is patent publication US11242343B2 (Incyte Corporation, priority 2016, dated 2022).
